In article PMC3088504 (Bioorganic & medicinal chemistry, 2009):

Biological target: H1 receptor (Homo sapiens, UniProt P35367)
Experiment: H1 competitive radioligand binding assay
Settings: H1 versus 5-HT2A, from Ki values

H1 receptor, sequence (P35367 whole entry): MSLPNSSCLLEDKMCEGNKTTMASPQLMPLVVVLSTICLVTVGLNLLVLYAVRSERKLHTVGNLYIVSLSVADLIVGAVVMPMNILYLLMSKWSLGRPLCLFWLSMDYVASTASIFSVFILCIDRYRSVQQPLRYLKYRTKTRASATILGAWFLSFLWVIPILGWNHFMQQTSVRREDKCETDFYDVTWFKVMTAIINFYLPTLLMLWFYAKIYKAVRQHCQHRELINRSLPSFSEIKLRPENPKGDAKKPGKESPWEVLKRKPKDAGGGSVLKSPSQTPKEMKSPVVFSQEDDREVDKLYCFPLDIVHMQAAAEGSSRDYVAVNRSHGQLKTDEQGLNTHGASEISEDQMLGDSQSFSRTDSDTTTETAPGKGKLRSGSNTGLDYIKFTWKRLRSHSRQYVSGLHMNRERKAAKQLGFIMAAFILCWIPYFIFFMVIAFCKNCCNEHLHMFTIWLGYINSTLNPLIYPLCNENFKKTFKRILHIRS

## CN(C)CCCC1c2ccccc2Cc2ccccc21 [Compound 3c]
  selectivity for the H1 receptor: 44 fold
